Measurements as given in US20220024921A1, “1,3,4-OXADIAZOLONE COMPOUND AND PHARMACEUTICAL” (NIPPON SHINYAKU CO., LTD., priority 2018, published 2022).
Where a name gives a salt, the structure may show the parent alone.

Experiments:
[1] = target: T1, PIM1 serine/threonine kinase (Homo sapiens, UniProt P11309); test: PIM1 serine/threonine kinase inhibitory effect; format: biochemical; settings: PIM1 serine/threonine kinase activity; ATP 40 μM; 30° C., 30 minutes
T1 construct: purchased Carna Bioscience, Inc
Summary of the method: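 Compounds were tested in duplicate from 0.01 to 10000 nM final against PIM1 kinase (0.15 μg/ml). The reaction ran for 30 minutes at 30° C with 40 μM ATP and 0.5 μM biotin-tagged substrate at pH 7.0. Phosphorylation was read by time-resolved FRET (OD665/OD620) after 1 h; IC50 by non-linear fit.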

[2] = target: PIM1 transgenic cells (Ba/F3) (Homo sapiens, UniProt P11309); test: Proliferation inhibitory effect on PIM1 transgenic cells; format: cell-based, mouse; settings: proliferation inhibition, 72 hours, Cell Counting Kit-8, read-out: PIM1 IC50
Excerpt: Human PIM1, 2, and 3 genes were inserted into the multi-cloning sites of retrovirus expression vectors pMYs-IRES-GFP, respectively, to prepare gene transfer vectors. Then, each gene transfer vector was introduced into packaging cells PLAT-E derived from a human fetal kidney cell line in the logarithmic growth phase, using a transfection reagent (FuGENE6, Promega Corporation). Since the culture supernatant of PLAT-E after gene transfer contained virus particles for gene transfer, the culture supernatant was collected and used as a medium for gene transfer. The medium for gene transfer was added to a plate coated with RetroNectin, and the plate was incubated to attach the virus particles to the plate. Then, a mouse pro-B cell line Ba/F3 in the logarithmic growth phase was seeded on the plate and infected with the virus to prepare PIM1, 2, or 3 transgenic cells that proliferate in a PIM 1, 2, or 3-dependent manner. The expression of PIM1, 2, or 3 protein in each cell was confirmed by Western blotting.
Each test substance was prepared to 10 mM with dimethylsulfoxide (DMSO), and diluted with DMSO so as to have concentrations of 3000, 1000, 300, 100, 30, 10, 3, and 1 μM. Moreover, each dilution was further diluted 10-fold with distilled water to prepare a test substance solution.
PIM1, 2, 3-expressing cells were seeded on a 96-well plate, and each test substance solution prepared the next day was added such that final concentrations were 10000, 3000, 1000, 300, 100, 30, 10, 3, and 1 nM. 72 hours after the addition, 10 μL of Cell Counting Kit-8 (DOJINDO LABORATORIES) was added to each well. After incubation for 1 to 4 hours, absorbance OD450 at 450 nm was measured. In addition, absorption OD650 at 650 nm as a reference wavelength was measured.
OD450-OD650 for each condition was calculated, and then the inhibition rates when OD450-OD650 of negative control (DMSO only) and OD450-OD650 of Blank (without cells) were set to 0% and 100%, respectively, were calculated. Then, non-linear regression analysis was performed for logarithmic dose and inhibition rate using a two-parameter logistic model to estimate IC50 values.

T1 sequence (P11309 whole entry): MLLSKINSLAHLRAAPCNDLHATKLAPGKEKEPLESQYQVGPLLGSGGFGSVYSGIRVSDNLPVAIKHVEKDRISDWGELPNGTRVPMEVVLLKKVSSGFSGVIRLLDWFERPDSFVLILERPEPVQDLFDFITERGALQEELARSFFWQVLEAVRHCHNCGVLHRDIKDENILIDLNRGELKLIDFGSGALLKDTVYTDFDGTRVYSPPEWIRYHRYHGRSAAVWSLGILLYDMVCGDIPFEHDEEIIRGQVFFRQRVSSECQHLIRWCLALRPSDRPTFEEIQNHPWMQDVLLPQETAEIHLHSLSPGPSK
Chain of PIM1 transgenic cells (Ba/F3) (P11309 whole entry, stated change not applied): as the sequence (P11309 whole entry) above

| IC50 [1] [nM] | GI50 [2] [nM] | Structure (SMILES) |
| --- | --- | --- |
| 2 | 9.2 | C[C@H](Nc1cc(-c2n[nH]c(=O)o2)cc(F)c1C(F)(F)F)[C@@H]1C[C@H](N)C1(C)C [Example 150, 5-[3-({(1S)-1-[(1R,3S)-3-amino-2,2-dimethylcyclobutyl]ethyl}amino)-5-fluoro-4-(trifluoromethyl)phenyl]-1,3,4-oxadiazol-2(3H)-one hydrochloride] |
| 39 | 870 | C[C@@H](CN)Oc1ccc(-c2cc(-c3n[nH]c(=O)o3)ccc2C(F)(F)F)cc1 [Example 24, 5-[4′-{[(2S)-1-aminopropan-2-yl]oxy}-6-(trifluoromethyl)[1,1′-biphenyl]-3-yl]-1,3,4-oxadiazol-2(3H)-one hydrochloride] |
| 9.6 | 88 | CC1(C)[C@@H](CNc2cc(-c3n[nH]c(=O)o3)ccc2C(F)(F)F)C[C@H]1N [Example 176, 5-[3-({[(1S,3R)-3-amino-2,2-dimethylcyclobutyl]methyl}amino)-4-(trifluoromethyl)phenyl]-1,3,4-oxadiazol-2(3H)-one] |
| 3.7 | 1800 | O=c1[nH]nc(-c2ccc(Br)c(NCC3CCNCC3)c2)o1 [Example 50, 5-(4-bromo-3-{[(piperidin-4-yl)methyl]amino}phenyl)-1,3,4-oxadiazol-2(3H)-one hydrochloride] |
| 11 | 7900 | NCCCCCNc1cc(-c2n[nH]c(=O)o2)ccc1C(F)(F)F [Example 3, 5-{3-[(5-aminopentyl)amino]-4-(trifluoromethyl)phenyl}-1,3,4-oxadiazol-2(3H)-one hydrochloride] |
| 7.2 | 46 | C[C@@H]1CNCC[C@@H]1[C@H](C)Nc1cc(-c2n[nH]c(=O)o2)ccc1Cl [Example 221, 5-[4-chloro-3-({(1S)-1-[(3S,4S)-3-methylpiperidin-4-yl]ethyl}amino)phenyl]-1,3,4-oxadiazol-2(3H)-one] |
| 14 | 1000 | O=c1[nH]nc(-c2ccc(C(F)(F)F)c(NCCN3CCNCC3)c2)o1 [Example 65, 5-[3-{[2-(piperazin-1-yl)ethyl]amino}-4-(trifluoromethyl)phenyl]-1,3,4-oxadiazol-2(3H)-one dihydrochloride] |
| 0.6 | 61 | N[C@H]1CC[C@H](CNc2cc(-c3n[nH]c(=O)o3)cc(F)c2Cl)CC1 [Example 86, 5-[3-({[(1r,4r)-4-aminocyclohexyl]methyl}amino)-4-chloro-5-fluorophenyl]-1,3,4-oxadiazol-2(3H)-one hydrochloride] |
| 3.9 | 97 | Cc1c(F)cc(-c2n[nH]c(=O)o2)cc1N[C@@H](C)C1CCNCC1 [Example 99, 5-(3-fluoro-4-methyl-5-{[(1S)-1-(piperidin-4-yl)ethyl]amino}phenyl)-1,3,4-oxadiazol-2(3H)-one dihydrochloride] |
| 2.2 | 100 | CC(N)[C@H]1CC[C@H](Nc2cc(-c3n[nH]c(=O)o3)ccc2C(F)(F)F)CC1 (stereo partly shown) [Example 39, 5-[3-{[(1r,4r)-4-(1-aminoethyl)cyclohexyl]amino}-4-(trifluoromethyl)phenyl]-1,3,4-oxadiazol-2(3H)-one hydrochloride] |
| 2.6 | 120 | N[C@H]1CC[C@H](CSc2cc(-c3n[nH]c(=O)o3)ccc2C(F)(F)F)CC1 [Example 234, 5-[3-({[(1r,4r)-4-aminocyclohexyl]methyl}sulfanyl)-4-(trifluoromethyl)phenyl]-1,3,4-oxadiazol-2(3H)-one] |
| 5.3 | 90 | CC(Oc1cc(-c2n[nH]c(=O)o2)ccc1Br)[C@H]1CC[C@H](N)CC1 (stereo partly shown) [Example 237, 5-(3-{1-[(1r,4r)-4-aminocyclohexyl]ethoxy}-4-bromophenyl)-1,3,4-oxadiazol-2(3H)-one] |
| 1.9 | 41 | CN[C@H]1CC[C@H]([C@H](C)Nc2cc(-c3n[nH]c(=O)o3)cc(F)c2C(F)(F)F)CC1 [Example 190, 5-[3-fluoro-5-({(1S)-1-[(1r,4S)-4-(methylamino)cyclohexyl]ethyl}amino)-4-(trifluoromethyl)phenyl]-1,3,4-oxadiazol-2(3H)-one hydrochloride] |
| 4.3 | 4200 | O=c1[nH]nc(-c2cc(NCC3(F)CCNCC3)c3cn[nH]c3c2)o1 [Example 116, 5-(4-{[(4-fluoropiperidin-4-yl)methyl]amino}-1H-indazol-6-yl)-1,3,4-oxadiazol-2(3H)-one hydrochloride] |
| 6.1 | 160 | CCN[C@H]1CC[C@H]([C@H](C)Nc2cc(-c3n[nH]c(=O)o3)ccc2C(F)(F)F)CC1 [Example 193, 5-[3-({(1S)-1-[(1r,4S)-4-(ethylamino)cyclohexyl]ethyl}amino)-4-(trifluoromethyl)phenyl]-1,3,4-oxadiazol-2(3H)-one hydrochloride] |
| 5.8 | 180 | C[C@H](Nc1cc(-c2n[nH]c(=O)o2)ccc1Cl)C1CCNCC1 [Example 77, 5-(4-chloro-3-{[(1S)-1-(piperidin-4-yl)ethyl]amino}phenyl)-1,3,4-oxadiazol-2(3H)-one dihydrochloride] |
| 3.2 | 34 | C[C@H](Nc1cc(-c2n[nH]c(=O)o2)cc(F)c1Cl)[C@H]1C[C@@H](N)C1 [Example 178, 5-[3-({(1S)-1-[(1s,3R)-3-aminocyclobutyl]ethyl}amino)-4-chloro-5-fluorophenyl]-1,3,4-oxadiazol-2(3H)-one hydrochloride] |
| 5.5 | 44 | CC(C)c1c(F)cc(-c2n[nH]c(=O)o2)cc1N[C@@H](C)[C@H]1CC[C@H](N)CC1 [Example 233, 5-[3-({(1S)-1-[(1r,4S)-4-aminocyclohexyl]ethyl}amino)-5-fluoro-4-(propan-2-yl)phenyl]-1,3,4-oxadiazol-2(3H)-one hydrochloride] |
| 6.1 | 110 | C[C@@H]1CNCC[C@@H]1[C@H](C)Nc1cc(-c2n[nH]c(=O)o2)ccc1OC(F)F [Example 220, 5-[4-(difluoromethoxy)-3-({(1S)-1-[(3S,4S)-3-methylpiperidin-4-yl]ethyl}amino)phenyl]-1,3,4-oxadiazol-2(3H)-one] |
| 10 | 2600 | O=c1[nH]nc(-c2ccc(Cl)c(OC[C@H]3C[C@@H](N4CCNCC4)C3)c2)o1 [Example 242, 5-(4-chloro-3-{[(1s,3s)-3-(piperazin-1-yl)cyclobutyl]methoxy}phenyl)-1,3,4-oxadiazol-2(3H)-one] |
| 1.9 | 4900 | CO/N=C1\CCN([C@@H](C)[C@H]2CCNC[C@H]2C)c2cc(-c3n[nH]c(=O)o3)cc(F)c21 [Example 246, 5-[(4E)-5-fluoro-4-(methoxyimino)-1-{(1S)-1-[(3S,4S)-3-methylpiperidin-4-yl]ethyl}-1,2,3,4-tetrahydroquinolin-7-yl]-1,3,4-oxadiazol-2(3H)-one hydrochloride] |
| 2 | 28 | C=C(C)c1c(F)cc(-c2n[nH]c(=O)o2)cc1N[C@@H](C)[C@H]1CC[C@H](N)CC1 [Example 232, 5-[3-({(1S)-1-[(1r,4S)-4-aminocyclohexyl]ethyl}amino)-5-fluoro-4-(prop-1-en-2-yl)phenyl]-1,3,4-oxadiazol-2(3H)-one hydrochloride] |
| 14 | 160 | C[C@H](Nc1cc(-c2n[nH]c(=O)o2)ccc1C(F)(F)F)[C@H]1[C@@H]2CC[C@H]1CNC2 [Example 156, 5-[3-({(1S)-1-[(1R,5S,8s)-3-azabicyclo[3.2.1]octan-8-yl]ethyl}amino)-4-(trifluoromethyl)phenyl]-1,3,4-oxadiazol-2(3H)-one hydrochloride] |
| 4.1 | 150 | N[C@H]1CC[C@@H](COc2cc(-c3n[nH]c(=O)o3)ccc2Cl)CC1 [Example 243, 5-(3-{[(1s,4s)-4-aminocyclohexyl]methoxy}-4-chlorophenyl)-1,3,4-oxadiazol-2(3H)-one] |
| 15 | 600 | O=c1[nH]nc(-c2ccc(C(F)(F)F)c(N3CCC4(CCNCC4)CC3)c2)o1 [Example 15, 5-[3-(3,9-diazaspiro[5.5]undecan-3-yl)-4-(trifluoromethyl)phenyl]-1,3,4-oxadiazol-2(3H)-one hydrochloride] |
| 12 | 100 | CC(Nc1cc(-c2n[nH]c(=O)o2)ccc1C(F)(F)F)C1(C)CCNCC1 (stereo not shown) [Example 115, 5-[3-{[1-(4-methylpiperidin-4-yl)ethyl]amino}-4-(trifluoromethyl)phenyl]-1,3,4-oxadiazol-2(3H)-one] |
